The source of these data is patent US6391575B1, “Methods for detecting membrane derived caspase activity and modulators thereof” (IDUN Pharmaceuticals, Inc., priority 1999, dated 2002).

Assay [1] concerns the target T1, membrane-derived caspases (Homo sapiens, UniProt P42574).
T1 construct: endogenous in cells
T1 sequence (P42574 29-175 limits assumed): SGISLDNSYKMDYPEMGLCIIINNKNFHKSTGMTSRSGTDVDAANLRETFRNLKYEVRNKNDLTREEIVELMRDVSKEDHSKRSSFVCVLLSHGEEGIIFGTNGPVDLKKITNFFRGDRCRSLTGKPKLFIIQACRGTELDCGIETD
T1 sequence (P42574 176-277 limits assumed): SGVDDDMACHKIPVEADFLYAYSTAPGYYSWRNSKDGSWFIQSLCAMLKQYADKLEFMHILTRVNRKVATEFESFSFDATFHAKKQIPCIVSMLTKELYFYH
The assay can be described thus: Kinetics of DEVD-amc hydrolysis by membrane-derived caspases. It is filed as biochemical. To be noted: substrate concentration varied 1-100 μM. Here is the method:
Caspase activity was measured by mixing 50 μl of an enzyme-containing fraction and 200 μl of 25 μM DEVD-amc (Asp-Glu-Val-Asp-aminomethylcoumarin) substrate in ICE buffer (20 mM HEPES, 1 mM EDTA, 0.1% CHAPS, 10% sucrose, 5 mM DTT, pH 7.5) in duplicate Cytoplate wells. Product formation was monitored by the increase in fluorescence (ex=360 nm, em=460 nm) over 1-2 hours at 30 ° C. using the CytoFluor 4000 plate reader (Perseptive Biosystems, Framingham, Mass.). For kinetic studies, the substrate concentration was varied in the range 1-100 μM. For inhibition studies the enzyme was pretreated with 150 μl inhibitor for 30 min at room temperature prior to the addition of 50 μl of 50 μM substrate solution. Inhibitor IC50 values were determined using the equation: […]
The membrane-derived caspase activities were further characterized by measuring the inhibition of DEVD-amc cleavage by several peptide aldehyde inhibitors (Table I). […] The observed IC50 values for the membrane associated caspases are very similar to those for purified fully-processed recombinant human caspase-3. […] N-terminal microsequence analysis of activated, affinity purified heavy membrane caspase confirms that this enzyme is indeed human caspase-3.

The test system of assay [2] is caspase-3 in cytoplasmic fractions (697-neo and 697-Bcl-2 cells). The assay can be described thus: Effect of exogenous cytochrome c on cytoplasmic fraction caspase activity. The assay is classed as biochemical, human. To be noted: cytochrome c during fractionation and assay; neo and Bcl-2 cells; FIG. 6B. As for the experimental part:
(§1) Frozen cell pellets containing ≈10^9 cells were thawed and resuspended in cold hypotonic buffer (10 mM Na-HEPES, 5 mM MgCl2, 42 mM KCl, pH 7.4) supplemented with 1 mM PMSF, 1 μg/ml leupeptin, 1 μg/ml pepstatin A, 5 μg/ml aprotinin, 0.1 mM EDTA, 0.1 mM EGTA and 5 mM DTT (Sigma) to a density of ≈1.5×10^8 cells/ml. The samples were incubated on ice for 30 min at which time the cells were lysed using 30-40 strokes with a Dounce homogenizer. The sample was centrifuged twice for 10 min at 500×g, 4° C. to separate the nuclei. The nuclear pellets were then washed twice in the same buffer supplemented with 1.6M sucrose, yielding the nuclear fraction. The supernatant was then centrifuged at 14,000×g for 30 min at 4° C. to pellet the heavy membranes. […] Protein concentrations were measured using Protein Assay Kit II from BioRad with bovine serum albumin as the calibration standard. […]
(§2) Heavy membrane samples were diluted to 1 mg/ml in hypotonic buffer or in 0.25 M sucrose, 10 mM MOPS, 2 mM EDTA, pH 7.4 (Mancini, et al., 1998) containing 5 mM DTT with or without 1% NP-40. […] To examine the time course of spontaneous activation of caspase activity from membranes, 50 μl of heavy membrane slurry containing 50-100 μg total protein was mixed with 200 μl hypotonic buffer containing 25 μM DEVD-amc substrate and 6 mM DTT in 96 well Cytofluor plates and fluorescence was measured over time. […]

In assay [3] the test system is membrane-associated procaspase-3 (697-neo and 697-Bcl-2 heavy membranes). Briefly: Effect of exogenous cytochrome c on heavy membrane caspase activity. It is filed as biochemical, human. To be noted: 10 μg/ml bovine cytochrome c during fractionation; 1 μg/ml cytochrome c plus dATP, 40 min at 30° C.; FIG. 6A. As for the experimental part:
as §1, §2

Turning to “Acetyl-Asp-Glu-Val-Asp-aminomethylcoumarin [DEVD-amc]”, the Km (as a rule, the concentration of substrate that gives half-maximal velocity) in assay [1] was found to be 10 µM.

Take “cytochrome c: bovine cytochrome c (Sigma)”: the “Effect on DEVD-amc cleavage activity of cytoplasmic fractions” value in assay [2] is listed as “strongly activated”. In addition, the “Effect on membrane-derived caspase activity (DEVD-amc cleavage)” value in assay [3] is reported as “no effect”.
